Assay results taken from ChEMBL document CHEMBL1159331, “Cytotoxic prenylated xanthones and the unusual compounds anthraquinobenzophenones from Cratoxylum sumatranum” (J Nat Prod, 2002).
≈ marks a conversion by molar mass, not a printed value. Calls of active or inactive are those of the source. The rule behind the calls is not given here.

Columns and labels:
KB = test: Cytotoxicity against human KB cells by MTT assay; type: functional, cell-based
P388 = test: In vivo antitumor activity against mouse P388 cells at 75 mg/kg, ip; type: functional, organism-based; design: dose 75 mg/kg

CC(C)=CCC/C(C)=C/Cc1c(O)cc(O)c2oc3cc(O)c(CC=C(C)C)c(O)c3c(=O)c12 [CRATOXYARBORENONE A]
EC50 (KB): 4.3 µg/mL (≈ 9.26 µM)

COc1cc2c(c(O)c1C(CC(C)CCC=C(C)C)c1c(OC/C=C(\C)CCC=C(C)C)cc(O)c(C(=O)c3ccccc3)c1O)C(=O)c1c(O)cc(C)cc1C2=O (stereo not given)
Activity (KB): inactive

COc1cc(OC)c2oc3cc(O)c(CC=C(C)C)c(O)c3c(=O)c2c1CC=C(C)C [CRATOXYARBORENONE C]
EC50 (KB): 1.5 µg/mL (≈ 3.53 µM) | Activity (P388): inactive

COc1ccc(O)c2c(=O)c3ccc(O)cc3oc12 [CRATOXYARBORENONE F]
EC50 (KB): 4.1 µg/mL (≈ 15.9 µM)

COc1cc2c(c(O)c1C(CC(C)C)c1c(OC/C=C(\C)CCC=C(C)C)cc(O)c(C(=O)c3ccccc3)c1O)C(=O)c1c(O)cc(C)cc1C2=O (stereo not given)
Activity (KB): inactive

C=C(C)C1Cc2c(cc3oc4c(O)c(O)c(O)c(CC=C(C)C)c4c(=O)c3c2O)O1 (stereo not given) [CRATOXYARBORENONE D]
EC50 (KB): 1.7 µg/mL (≈ 4.14 µM)

COc1cc2cc3c(c(O)c2c2c1C=CC(C)(C)O2)C(=O)CC(C)(O)C3 (stereo not given) [VISMIONE B]
EC50 (KB): 1.3 µg/mL (≈ 3.67 µM)

CC(C)=CCc1c(O)cc2oc3c(O)cc(O)c(CC=C(C)C)c3c(=O)c2c1O [CRATOXYARBORENONE B]
EC50 (KB): 1 µg/mL (≈ 2.52 µM)

COc1c(O)cc2c(=O)c3c(O)cc(O)c(CC=C(C)C)c3oc2c1CC=C(C)C [CRATOXYARBORENONE E]
EC50 (KB): 4.3 µg/mL (≈ 10.5 µM)
